Test results as given in patent US20240226066A1, “CARDIOPROTECTION BY AUTOPHAGY INDUCTION AND METABOLIC REPROGRAMMING” (UNIVERSITE PARIS-SACLAY, priority 2021, published 2024).
Where two headings read alike, the source gives them in different places.

Columns and labels:
[1] = target: T1, hERG potassium channel (Homo sapiens, UniProt Q12809); assay: hERG channel binding assay ([3H]dofetilide displacement); conditions: for inhibition at 10 µM: human, probe [3H]dofetilide
T1 construct: Eurofins
Description: The evaluation of the binding of the compounds to the human hERG potassium channel was carried out as described previously (Eurofins).
Since the blocking of the human potassium channel hERG channel may be responsible for cardiac fibrillation leading to cardiac arrest and death of the patient, the binding of the 3 molecules SG6163F, VP331 and LOPA87 to this receptor was evaluated.

[2] = test system: primary rat neonatal ventricular cardiomyocytes (RNVCs); assay: Protection of RNVCs against camptothecin-induced apoptosis (LDH release, propidium iodide); type: cell-based; conditions: camptothecin 10 μM
Description: Neonatal rat cardiomyocytes were isolated as described previously (Wang et al., Cell Death Dis, 2016, 7:e2198).
(§1) A colorimetric assay was used to measure lactate dehydrogenase (LDH), a cytosolic enzyme which is released during permeabilization of the plasma membrane (Promega G1780). The assay was performed using cell culture supernatants obtained from H9C2 or RNVC (rat neonatal ventricular myocyte) cells and lysis buffer (LB) was used as a positive control for total cell lysis. The LDH release was measured by absorbance reading at 490 nm (Infinite spectrofluorimeter, Tecan).
Propidium iodide, a non-permeable fluorescent DNA marker, was used to measure membrane integrity. Propidium iodide at 10 μM was added to the culture medium and a fluorescence reading was performed (for […]: 530 nm; em: 620 nm), the LB was used as a positive control for total cell lysis.
(§2) The effect of the compounds was then evaluated on primary rat neonatal ventricular cardiomyocytes (RNVCs) using the LDH test and propidium iodide staining. […] The absence of proliferative effects of the compounds was also evaluated on the A549 lung cancer cell line for 48 h (FIG. 2C).

[3] = test system: A549 lung cancer cell line; assay: Influence of hits on growth of A549 cancer cells (total LDH after lysis); type: cell-based; conditions: 48 h
Description: The cells were cultured for 6 h in the presence or absence of the hits, and then for 42 h. Finally, the cells were lysed with lysis buffer and the amount of LDH was measured to evaluate the total cell growth.
as §1, §2

[4] = test system: RNVCs; assay: Mitochondrial network and cell volume by confocal microscopy (Mitotracker, calcein-AM, IMARIS); type: cell-based, rat; conditions: 1 and 10 μM, 6 h
Description: FIG. 6. Effects on mitochondrial dynamics by fluorescence microscopy The RNVCs were treated with 1 μM hits (FIG. 6A) and 10 μM hits (FIG. 6B) for 6 h and the mitochondrial network was stained with 200 nM of Mitotracker. The mitochondrial network and individual mitochondria were then analyzed using a Leica confocal microscope and IMARIS software. Data are presented as mean±SEM with single-factor ANOVA, and multiple Sidak comparisons. *, p<0.05, **, p<0.01, ***, p<0.001 with respect to DMSO.
FIG. 11: following the treatment of the RNVCs with the compounds as indicated, the cell volume was stained with 4 μM of calcein-AM. The cell volume was then analyzed using the IMARIS software.
Confocal microscopy. On day 0, 4×10^5 neonatal cardiomyocytes were plated overnight on laminin-coated 35 mm culture dishes (10 μg/ml). On day 1, the cells were treated with various compounds at 1 or 10 μM for 6 hours. The cells were incubated with Mitotracker Red 580 at 200 nM for 20 minutes at 37° C., then 4 μM of calcein (Calcein AM, Life Technologies, St Aubin, France) for 10 minutes at 37° C. The images were acquired with a Leica confocal microscope (SP5) (Mannheim, Germany). The mitochondrial network and the 3D model of cell volume were reconstructed using the IMARIS software (Bitplane Company, Zurich, Switzerland); therefore the cell volume, mitochondrial number and volume were analyzed.
Due to the importance of mitochondria and reactive oxygen species (ROS) levels in the fate of cardiomyocyte cells, the hypothesis that the compounds could impact the mitochondrial network was explored. Following treatment of the RNVCs with the compounds tested, the mitochondrial network was stained with 200 nM of Mitotracker and the cell volume with 4 μM of calcein-AM. Thus, the mitochondrial network and the individual mitochondria were then analyzed using the IMARIS software.

[5] = test system: RNVCs; assay: Mitochondrial ROS production with MitoSOX fluorescent probe; type: cell-based, rat; conditions: 1 μM, 6 h
Description: FIG. 12: The RNVCs were treated with 0.1% DMSO, 3 μM rapamycin, 1 μM digitoxigenin, 1 μM digoxin, 1 μM minaprin, 1 μM VP331, 1 μM LOPA87, 10 μM SG6163F for 6 h, then the ROS production was stained with the MitoSOX fluorescent probe.
The RNVCs were treated with 0.01% DMSO, 3 μM rapamycin, […], 1 μM digoxin, 1 μM minaprine, 1 μM VP331, 1 μM LOPA87, 10 μM SG6163F in a serum-free cell culture medium for 6 hours. The contents (50 μg) of a MitoSOX™ mitochondrial superoxide indicator vial (ThermoFisher, M36008) were dissolved in 13 μl dimethyl sulfoxide (DMSO) to prepare a 5 mM MitoSOX™ reagent stock solution. Next, the 5 mM MitoSOX™ reagent stock solution in PBS was diluted to prepare a 5 μM working solution of MitoSOX™ reagent. After treatment, the cells were rinsed twice with hot PBS and then incubated with a MitoSOX reagent working solution for 10 minutes at 37° C. The cells were gently rinsed three times with hot PBS. Red fluorescence was detected with a Leica confocal microscope. Nuclear fluorescence was suppressed and mitochondrial fluorescence intensity was measured using ImageJ software.
ROSs are produced or accumulated as a by-product of mitochondrial activity metabolism. Thus, the ROSs may be a consequence of mitochondrial function or may reflect a defect in the mitochondrial antioxidant system.

[6] = test system: AMP-activated protein kinase (AMPK); assay: Western blot of AMPK phosphorylation in RNVCs; type: cell-based, rat
Description: FIG. 8D: AMPK alpha2 and phospho-AMPK protein levels in RNVCs. Data are presented as mean±SEM with single-factor ANOVA, and multiple Sidak comparisons. *, p<0.05, **, p<0.01, ***, p<0.001 with respect to DMSO.
The H9C2 cells and RNVCs were detached in LB containing: 50 mM Tris, 150 mM NaCl, 1 mM EDTA, 0.5% deoxycholate, 1% Triton X 100, 0.1% SDS (pH 8.0). The cells were collected and placed on ice for 30 minutes. The cells were then centrifuged at 2000 g for 20 minutes at for 4° C. The supernatant was transferred to a new tube and stored on ice. The protein concentration was determined by BCA assay. The protein samples were diluted with sample buffer (2× Laemmli, Sigma), mixed, and heated for 5 minutes at 95° C. The samples were then loaded into a precast gel with a gradient of 4 to 20% and migrated for 15 minutes at 300 V. After migration, the membrane and the gel were placed on the base of a Trans Blot Turbo cassette (Bio Rad) and the proteins were transferred for 3 minutes at 2.5 V. After transfer, the membrane was blocked with 5% milk in PBS-Tween and incubated with a primary antibody diluted in PBS-Tween containing 5% w/v milk at 4° C. with gentle stirring, overnight. […] The images were recorded with a gel imaging system (Bio Rad). […]
Next, the energy metabolism was analyzed in real time using the Seahorse technology in H9C2 cells.

T1 sequence (Q12809 whole entry): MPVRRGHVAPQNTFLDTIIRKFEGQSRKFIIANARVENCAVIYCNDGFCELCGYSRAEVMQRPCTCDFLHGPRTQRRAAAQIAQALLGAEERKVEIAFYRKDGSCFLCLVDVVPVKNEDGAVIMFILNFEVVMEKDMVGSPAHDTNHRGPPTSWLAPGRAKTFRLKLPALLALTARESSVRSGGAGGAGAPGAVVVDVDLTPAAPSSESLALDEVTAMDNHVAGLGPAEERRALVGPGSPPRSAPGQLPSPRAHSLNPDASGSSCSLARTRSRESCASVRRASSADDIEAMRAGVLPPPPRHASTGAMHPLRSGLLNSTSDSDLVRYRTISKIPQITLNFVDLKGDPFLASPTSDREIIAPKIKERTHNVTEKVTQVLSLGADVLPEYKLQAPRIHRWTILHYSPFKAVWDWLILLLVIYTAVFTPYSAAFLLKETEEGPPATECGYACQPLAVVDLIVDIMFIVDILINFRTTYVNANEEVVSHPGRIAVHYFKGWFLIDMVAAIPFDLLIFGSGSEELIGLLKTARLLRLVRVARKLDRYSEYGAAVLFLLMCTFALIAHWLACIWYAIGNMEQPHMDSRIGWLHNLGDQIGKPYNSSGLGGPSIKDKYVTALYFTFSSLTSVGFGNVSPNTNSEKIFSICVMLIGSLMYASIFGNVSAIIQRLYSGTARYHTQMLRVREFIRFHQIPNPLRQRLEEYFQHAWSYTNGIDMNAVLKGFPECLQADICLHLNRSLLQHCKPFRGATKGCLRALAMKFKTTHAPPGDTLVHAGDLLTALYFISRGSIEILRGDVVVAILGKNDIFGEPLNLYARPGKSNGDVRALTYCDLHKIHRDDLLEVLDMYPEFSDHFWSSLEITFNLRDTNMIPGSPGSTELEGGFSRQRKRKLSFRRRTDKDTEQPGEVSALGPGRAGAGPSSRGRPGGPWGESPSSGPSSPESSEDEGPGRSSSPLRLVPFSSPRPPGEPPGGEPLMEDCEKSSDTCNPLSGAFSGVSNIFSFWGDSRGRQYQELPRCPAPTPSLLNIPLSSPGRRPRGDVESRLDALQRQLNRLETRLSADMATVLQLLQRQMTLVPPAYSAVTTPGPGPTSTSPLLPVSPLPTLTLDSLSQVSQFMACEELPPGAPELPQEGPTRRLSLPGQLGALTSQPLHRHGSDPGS

CN(C)c1ccc(-c2cc(=O)[nH]c(-c3ccccc3)n2)cc1 [LOPA87]
inhibition at 10 µM ([1]; inhibition of tritiated dofetilide binding, only values >50% considered effective, read-out: % inhibit 1st assay): 14.6% | inhibition at 10 µM ([1]; inhibition of tritiated dofetilide binding, only values >50% considered effective, read-out: % inhibit 2nd assay): 5.3% | inhibition at 10 µM ([1]; mean of two independent measurements, read-out: % inhibit Mean): 10% | binding to the hERG channel ([1]; inhibition of specific binding of [3H]dofetilide in vitro): negligible | inhibition of apoptosis of RNVCs [2]: did not protect | effect on A549 cell growth [3]: no proliferative effect | effect on the mitochondrial network [4]: no effect | number of mitochondria [4]: no effect | local level of mitochondrial superoxide anion [5]: induced an elevation | AMPK phosphorylation compared with the DMSO control [6]: 1.5 fold
